The structures appear in SMILES notation.

For eight compounds, IC50 results are on record in patent US12590118B2, “Salt and crystal form of steroid derivative regulator” (Shanghai Hansoh Biomedical Co., Ltd., priority 2019, dated 2026).

In the assay the target is GABA-A receptor. The assay is described as follows: 35S-TBPS binding assay (GABAA receptor binding ability assay). Further details: species or system Sprague-Dawley rat. The note with it: rat cerebral cortex cell membrane, 5 μM GABA, 2 nM 35S-TBPS; read-out: IC50 on inhibiting the TBPS binding activity, 35S-TBPS bindng assay. The protocol: 1. The cerebral cortex of male Sprague-Dawley rat was isolated.
2. A pre-chilled 0.32 M sucrose solution (one tablet of protease inhibitor was added per 100 mL) was added to the cerebral cortex (the volume of sucrose solution was 10 times the volume of the cerebral cortex). The mixture was crushed with a 50 mL glass tissue homogenizer in batches and mixed well.
3. The mixture was centrifuged at 1,500 g, 4° C. for 10 minutes, and the supernatant was collected.
4. The mixture was centrifuged at 20,000 g, 4° C. for 30 minutes, and the supernatant was discarded.
5. The precipitate was resuspended with the pre-chilled phosphate buffer saline (PBS) (one tablet of protease inhibitor was added per 100 mL). An average of 4 mL of PBS was added per rat, and the mixture was mixed well with a glass tissue homogenizer.
6. The mixture was centrifuged at 10,000 g, 4° C. for 10 minutes, and the supernatant was discarded.
7. Steps 5 and 6 were repeated three times.
8. Finally, the precipitate was resuspended with 4 volumes of PBS. The resulting solution was dispensed, frozen in liquid nitrogen, and stored at −80° C.
9. The protein concentration was measured by the bicinchoninic acid (BCA) method.
1. 230 μL of PBS was added to each well of a well plate with 1.1 mL volume.
2. 60 μL of the cerebral cortex cell membrane (5 μg/μL) solution was added to each well, and the mixture was mixed well.
3. The test compound (3 μL per well) was added, and the plate was incubated at 25° C. for 5 minutes. The DMSO concentration was 1%. The initial compound concentration was […], and a
3-fold dilution in gradient was carried out to obtain a total of 8 gradients and 2 replicates. 1% DMSO was used as a negative control, and 10 μM P026-2 was used as a positive control.
4. GABA was added at a final concentration of 5 μM, and incubated at 25° C. for 5 minutes. 1 mM GABA solution was formulated, and 1.5 μL of the solution was added to each well.
5. 35S-TBPS was added at a final concentration of 2 nM. The concentration of isotope mother solution was 9.7 μM. After dilution with PBS for 100 times, 6 μL of the diluted isotope solution was added to each well.
6. The plate was incubated at 4° C. for 20 hours.
7. The FilterMate GF/C plate was pre-treated with 0.5% PEI, and incubated at 4° C. for 1 hour.
8. The FilterMate GF/C plate was washed with Universal Harvester twice, 50 mL PBS each time.
9. The reaction solution was transferred to the GF/C plate, and each well was washed 4 times with 900 μL of PBS.
10. The washed GF/C plate was placed at 55° C. and dried for 10 minutes.
11. 40 μL of scintillation solution was added to each well, and the CPM value was read with TopCount.
In the experiment, the CPM (counts per minute) value was read with TopCount. According to the readings of the High control (DMSO) and the Low control (10 μM of the positive compound) experimental groups, the % inhibition was calculated based on the following formula: % Inhibition=100×(CPMHigh control−CPMsample)/(CPMHigh control−CPMLow control)
The IC50 of the compound was calculated according to the following 4-parameter nonlinear logic formula: Y=Bottom+(Top−Bottom)/(1+10^((Log IC50−X)*HillSlope)),
wherein: • X represents the log of compound concentration, • Y represents the % Inhibition.
The effect of the compound of the present invention on the TBPS binding activity was determined by the above test, and the measured IC50 values are shown in Table 5.
`Cc1c(C#N)cnn1CC(=O)[C@H]1[C@H]2C[C@H]2[C@H]2[C@@H]3CC[C@@H]4C[C@](C)(O)CC[C@@H]4[C@H]3CC[C@@]21C` [Example 29, 1-(2-((2R,4aS,4bR,6aS,7S,7aS,8aR,8bR,8cR,10aR)-2-Hydroxy-2,6a-dimethyloctadecahydrocyclopropa[4,5]cyclopenta[1,2-a]phenanthren-7-yl)-2-oxoethyl)-5-methyl-1H-pyrazole-4-carbonitrile]: the IC50 is 15.4 nM.
Take `C[C@@]1(O)CC[C@H]2[C@H](CC[C@@H]3[C@@H]2CC[C@@]2(C)[C@H]3[C@@H]3C[C@@H]3[C@@H]2C(=O)Cn2cc(Cl)cn2)C1` [Example 14, 2-(4-Chloro-1H-pyrazol-1-yl)-1-((2R,4aS,4bR,6aS,7S,7aS,8aR,8bR,8cR,10aR)-2-hydroxy-2,6a-dimethyloctadecahydrocyclopropa[4,5]cyclopenta[1,2-a]phenanthren-7-yl)ethan-1-one]: the half-inhibitory concentration (IC50) turned out to be 6.4 nM.
Take `C[C@@]1(O)CC[C@H]2[C@H](CC[C@@H]3[C@@H]2CC[C@@]2(C)[C@H]3[C@@H]3C[C@@H]3[C@@H]2C(=O)Cn2ncc(C#N)c2C2CC2)C1` [Example 25, 5-Cyclopropyl-1-(2-((2R,4aS,4bR,6aS,7S,7aS,8aR,8bR,8cR,10aR)-2-hydroxy-2,6a-dimethyloctadecahydrocyclopropa[4,5]cyclopenta[1,2-a]phenanthren-7-yl)-2-oxoethyl)-1H-pyrazole-4-carbonitrile]: the half-inhibitory concentration (IC50) is 28.1 nM.
Regarding `C[C@@]1(O)CC[C@H]2[C@H](CC[C@@H]3[C@@H]2CC[C@@]2(C)[C@H]3[C@@H]3C[C@@H]3[C@@H]2C(=O)Cn2ncnn2)C1` [Example 7, 1-((2R,4aS,4bR,6aS,7S,7aS,8aR,8bR,8cR,10aR)-2-Hydroxy-2,6a-dimethyloctadecahydrocyclopropa[4,5]cyclopenta[1,2-a]phenanthren-7-yl)-2-(2H-tetrazol-2-yl)ethan-1-one], the IC50 was 21.3 nM.
As for `C[C@@]1(O)CC[C@H]2[C@H](CC[C@@H]3[C@@H]2CC[C@@]2(C)[C@H]3[C@@H]3C[C@@H]3[C@@H]2C(=O)Cn2ccc(C(F)(F)F)n2)C1` [Example 4, 1-((2R,4aS,4bR,6aS,7S,7aS,8aR,8bR,8cR,10aR)-2-Hydroxy-2,6a-dimethyloctadecahydrocyclopropa[4,5]cyclopenta[1,2-a]phenanthren-7-yl)-2-(3-(trifluoromethyl)-1H-pyrazol-1-yl)ethan-1-one], the IC50 is 3.1 nM.
Next, `C[C@@]1(O)CC[C@H]2[C@H](CC[C@@H]3[C@@H]2CC[C@@]2(C)[C@H]3[C@@H]3C[C@@H]3[C@@H]2C(=O)Cn2cc(C#N)c(C3CC3)n2)C1` [Example 24, 3-Cyclopropyl-1-(2-((2R,4aS,4bR,6aS,7S,7aS,8aR,8bR,8cR,10aR)-2-hydroxy-2,6a-dimethyloctadecahydrocyclopropa[4,5]cyclopenta[1,2-a]phenanthren-7-yl)-2-oxoethyl)-1H-pyrazole-4-carbonitrile]: 18.3 nM; `C[C@@H]1C[C@H](C(=O)Cn2ccnn2)[C@@]2(C)CC[C@H]3[C@@H](CC[C@@H]4C[C@](C)(O)CC[C@@H]43)[C@H]12` [Example 42, 1-((3R,5R,8R,9R,10S,13S,14S,15R,17S)-3-Hydroxy-3,13,15-trimethylhexadecahydro-1H-cyclopenta[a]phenanthren-17-yl)-2-(1H-1,2,3-triazol-1-yl)ethan-1-one]: 24.6 nM.
For the compound `Cc1nnnn1CC(=O)[C@H]1[C@H]2C[C@H]2[C@H]2[C@@H]3CC[C@@H]4C[C@](C)(O)CC[C@@H]4[C@H]3CC[C@@]21C` [Example 71, 1-((2R,4aS,4bR,6aS,7S,7aS,8aR,8bR,8cR,10aR)-2-Hydroxy-2,6a-dimethyloctadecahydrocyclopropa[4,5]cyclopenta[1,2-a]phenanthren-7-yl)-2-(5-methyl-1H-tetrazol-1-yl)ethan-1-one], the IC50 turned out to be 11.4 nM.

The term IC50 denotes the concentration needed to halve the response being measured.
